For the experiment, the system named is L-41 cell line. In words: cytostatic activity on reinoculated tumor culture of L-41 cell line (protein content, % cell growth inhibition). It is filed as cell-based. On the procedure:
The […] activity of a pharmaceutical formulation of the invention was tested with using reinoculated tumor cell cultures.
In the studies a reinoculated leukocyte culture of L-41 strain was used.
The cell culture was incubated by the conventional method. The inoculate density was 1-10^5 cells in 1 ml of nutrient medium. […] On day 2 from the start of the study, a biological activity of the proposed formulation was estimated using 4-point scale. The assays for protein in cultures were performed by the Louri method modified by the Oyama and Eagle.
The cytostatic activity of the proposed formulation was evaluated as the % inhibition of cell culture growth by the suppression of protein production.
According to the existing standard techniques for screening the antitumor preparations, a pharmaceutical formulation is recognized to be efficient when its ED50 is less or equal to 100 μg/ml.
Comparison of biologic activity of the proposed pharmaceutical
reinoculated tumor culture of L-41 cell line

Setting [1] is: mercury dichloride alone 1.0 μg/ml.
The mark [2] stands for this setting: mercury dichloride alone 3.3 μg/ml.
[3] abbreviates: mercury dichloride alone 5.0 μg/ml.
Setting [4] is: mercury dichloride alone 8.0 μg/ml.

Each structure is given as a SMILES string.

As for `[Cl][Hg][Cl]` [Mercury dichloride, mercury dichloride], the ED50 result (L-41 culture, Table 1 data) is given as “about 8 μg/ml”. Besides, the “% of cell growth inhibition” value came to 1.2% under setting [1], 5.1% under setting [2], 12.9% under setting [3] and 47.6% under setting [4]. Also, the Protein content under setting [1] came out at 390.3 ± 2.6 µg/mL, the Protein content under setting [2] turned out to be 279.0 ± 27.3 µg/mL, the Protein content under setting [3] was 256.0 ± 5.2 µg/mL and the Protein content under setting [4] was 154.0 ± 5.0 µg/mL. Also, the “ED50 (preliminary experiment)” value (preliminary experiment) was below 10 µg/mL.

(Values after patent US5889048A, “Methods and compositions for treating defective cell functions” (priority 1994, dated 1999).)
